Patent US11649232B2, “Synthetic dimeric cinchona alkaloids against cancer” (Ares Pharmaceuticals, LLC, priority 2021, dated 2023)
Like-named read-outs stand apart in the source and are kept apart here.

Legend:
[1] = test system: ALL-1 (Ph+ adult ALL, B-lineage) cell line; experiment: Flow cytometric Annexin V-FITC/PI apoptosis assay; assay type: cell-based, human; settings: for IC50: Homo sapiens, read-out: IC50 (apoptosis)
Description: (§1) Cell lines and Apoptosis Assays. We used the human leukemia cell lines ALL-1 (Ph+ adult ALL, B-lineage), LOUCY (adult T-lineage ALL; ATCC® CRL-2629™), and RAJI (Burkitt's leukemia/lymphoma; ATCC®, CCL-86) as targets to evaluate the anti-leukemic activity of cinchona alkaloids. In vivo leukemia initiating xenograft clones capable of causing disseminated and fatal leukemia in NOD-SCID mice, derived from primary leukemia cells of 5 patients with relapsed ALL, and the aforementioned 3 leukemia cells lines were treated for 24 hours or 48 hours at 37° C. with cinchona alkaloids at increasing concentrations ranging from 0.5 μM to 50 μM. Controls cells were treated with vehicle (PBS).
(§2) Apoptotic death was monitored using multiparameter flow cytometry, as previously reported (Uckun, F. M. et al., British Journal of Haematology, 2011, 153:741-752; Uckun, F. M. et al., J Clin Invest., 2015, 125:1006-18). Controls included vehicle (PBS) treated cells (CON). Cells were analyzed for apoptosis using the standard quantitative flow cytometric apoptosis assay using the Annexin V-FITC Apoptosis Detection Kit from Sigma. The labeled cells were analyzed on a LSR II flow cytometer. The percent apoptosis was calculated using the formula: 100−100×(Percentage of non-apoptotic cells in test sample/Percentage of non-apoptotic cells in untreated control sample). The percentages for Annexin V FITC^−PI^− viable cells and Annexin V-FITC^+PI^+ advanced apoptotic cells for each sample are indicated in the respective quadrants of the depicted two-color fluorescence dot plots.
as §1, with “We” for “Cell lines and Apoptosis Assays. We”, “ARES-BI-C001453. […]” for “cinchona alkaloids.”, “ARES-BI-C001453” for “cinchona alkaloids”

[2] = test system: RAJI (Burkitt's leukemia/lymphoma) cell line; experiment: Flow cytometric Annexin V-FITC/PI apoptosis assay; assay type: cell-based, human; settings: for IC50: Homo sapiens, read-out: IC50 (apoptosis)
Description: as §1, §2
as §1, with “We” for “Cell lines and Apoptosis Assays. We”, “ARES-BI-C001453. […]” for “cinchona alkaloids.”, “ARES-BI-C001453” for “cinchona alkaloids”

[3] = test system: LOUCY (adult T-lineage ALL) cell line; experiment: Flow cytometric Annexin V-FITC/PI apoptosis assay; assay type: cell-based, human; settings: for IC50: Homo sapiens, read-out: IC50 (apoptosis)
Description: as §1, §2
as §1, with “We” for “Cell lines and Apoptosis Assays. We”, “ARES-BI-C001453. […]” for “cinchona alkaloids.”, “ARES-BI-C001453” for “cinchona alkaloids”

[4] = Flow cytometric Annexin V-FITC/PI apoptosis assay, combined data sets; assay type: cell-based; settings: Homo sapiens, Raji, 24 or 48 hours treatment, 0.5-50 μM, read-out: estimated IC50 (apoptosis)
Description: as §1
as §2, with “The percentages for Annexin V FITC^−PI^− viable cells and Annexin V-FITC^+PI^+ advanced apoptotic cells for each sample are indicated in the respective quadrants of the depicted two-color fluorescence dot plots.” left out

[5] = test system: BT-20 triple-negative breast cancer cell line; experiment: Clonogenic assay (methylcellulose colony assay); assay type: cell-based, human
Protocol: (§3) Clonogenic Assays. The cytotoxicity of cinchona alkaloids was tested against clonogenic human cancer cells was examined using a methylcellulose colony assay system, as described previously (Uckun, F. M. et al., J. Exp. Med., 1986, 163: 347-68; Uckun, F. M. et al., J. Clin. Invest., 1993, 91: 1044-1051). In brief, cells (10^5 cells/ml in RPMI-10% fetal bovine serum) were treated for 8 hours at 37° C. with cinchona alkaloids at varying concentrations. After treatment, cells were washed twice, and resuspended in clonogenic medium consisting of RPMI 1640 supplemented with 0.9% methylcellulose, 10% fetal bovine serum, and 50 μM 2-mercaptoethanol. Cells were plated at 5×10^4 cells/ml in RPMI 1640 supplemented with 10% fetal bovine serum, and 0.9% methylcellulose in duplicate 35-mm Petri dishes, and cultured for 7 days at 37° C. in a humidified 5% CO2 incubator. Subsequently, cancer cell colonies were enumerated on a grid using an inverted phase-contrast microscope of high optical resolution. Results were expressed as the % Inhibition=[1−(Number of colonies in compound-treated test cultures/Number of colonies in vehicle-treated control cultures)]×100.
as §3, with “cytotoxicity of synthetic dimeric cinchona alkaloids” for “cytotoxicity of cinchona alkaloids”

[6] = test system: ALL-1 BCR-ABL/Ph+ B-lineage ALL cell line; experiment: Clonogenic assay (methylcellulose colony assay); assay type: cell-based, human; settings: for in vitro colony formation by ALL-1 cells: 10 μM
Protocol: as §3
as §3, with “cytotoxicity of synthetic dimeric cinchona alkaloids” for “cytotoxicity of cinchona alkaloids”

[7] = test system: PC-3 castration-resistant prostate cancer cell line; experiment: Clonogenic assay (methylcellulose colony assay); assay type: cell-based, human; settings: for inhibition at 3 µM / IC50 / inhibition at 1 µM / inhibition at 10 µM: Homo sapiens
Protocol: as §3
as §3, with “cytotoxicity of synthetic dimeric cinchona alkaloids” for “cytotoxicity of cinchona alkaloids”

[8] = test system: BT-20 and PC-3 cells; experiment: Clonogenic assay, pooled 4 experiments (2 PC-3, 2 BT-20); assay type: cell-based, human
Protocol: as §3
as §3, with “cytotoxicity of synthetic dimeric cinchona alkaloids” for “cytotoxicity of cinchona alkaloids”

## CCC1CC23[C@H]([C@H](Oc4nnc(O[C@@H](c5ccnc6ccc(OC)cc56)[C@H]5CC6CCN5CCC6(O)CC)c5ccccc45)c4ccnc5ccc(OC)cc45)N2CC[C@@H]13 (some centres unmarked) [ARES-BI-C002453]
[1]; ALL-1
  fold higher IC50 value than ARES-BI-C001453: 9.4 fold
[1]
  IC50: 7300 nM
[2]; Raji
  IC50: 16700 nM
[2]; RAJI
  fold higher IC50 value than ARES-BI-C001453: 1.9 fold
[3]
  IC50: 1500 nM
[3]; LOUCY
  fold higher IC50 value than ARES-BI-C001453: 35.7 fold

## CCC1(O)CCN2CCC1C[C@@H]2[C@@H](Oc1nnc(O[C@H](c2ccnc3ccc(OC)cc23)[C@@H]2N3CC[C@H]4C(O)(CC)CC243)c2ccccc12)c1ccnc2ccc(OC)cc12 (mixture of isomers) [ARES-BI-C001453]
[4]
  IC50: 8600 nM
[5]; BT-20 EXP#1, 1 μM
  Colonies/5 × 10^4 Cells: 21.5 Colonies/5 × 10^4 Cells
[5]; BT-20 EXP#1, 3 μM
  Colonies/5 × 10^4 Cells: 10.0 Colonies/5 × 10^4 Cells
[5]; BT-20 EXP#1, 10 μM
  Colonies/5 × 10^4 Cells: 0.0 Colonies/5 × 10^4 Cells
[5]; BT-20 EXP#2, 1 μM
  Colonies/5 × 10^4 Cells: 40.0 Colonies/5 × 10^4 Cells
[5]; BT-20 EXP#2, 3 μM
  Colonies/5 × 10^4 Cells: 9.5 Colonies/5 × 10^4 Cells
[5]; BT-20 EXP#2, 10 μM
  Colonies/5 × 10^4 Cells: 1.0 Colonies/5 × 10^4 Cells
[5]; Homo sapiens, BT-20, BT-20 EXP#1, 1 μM
  inhibition at 1 µM: 78%
[5]; Homo sapiens, BT-20, BT-20 EXP#1, 3 μM
  inhibition at 3 µM: 89.8%
[5]; Homo sapiens, BT-20, BT-20 EXP#1, 10 μM
  inhibition at 10 µM: > 98.9%
[5]; Homo sapiens, BT-20, BT-20 EXP#2, 1 μM
  inhibition at 1 µM: 64.9%
[5]; Homo sapiens, BT-20, BT-20 EXP#2, 3 μM
  inhibition at 3 µM: 91.7%
[5]; Homo sapiens, BT-20, BT-20 EXP#2, 10 μM
  inhibition at 10 µM: 99.1%
[5]; Homo sapiens, BT-20, two independent experiments, non-linear regression, read-out: IC50, inhibition of clonogenic growth
  IC50: 369 nM
[6]
  in vitro colony formation by ALL-1 cells: abrogated the in vitro colony formation
[6]; ALL-1 EXP#1, 1 μM
  Colonies/5 × 10^4 Cells: 27.5 Colonies/5 × 10^4 Cells
[6]; ALL-1 EXP#1, 3 μM
  Colonies/5 × 10^4 Cells: 32.0 Colonies/5 × 10^4 Cells
[6]; ALL-1 EXP#1, 10 μM
  Colonies/5 × 10^4 Cells: 0.0 Colonies/5 × 10^4 Cells
[6]; ALL-1 EXP#2, 1 μM
  Colonies/5 × 10^4 Cells: 99.5 Colonies/5 × 10^4 Cells
[6]; ALL-1 EXP#2, 3 μM
  Colonies/5 × 10^4 Cells: 14.5 Colonies/5 × 10^4 Cells
[6]; ALL-1 EXP#2, 10 μM
  Colonies/5 × 10^4 Cells: 0.0 Colonies/5 × 10^4 Cells
[6]; Homo sapiens, ALL-1 EXP#1, 1 μM
  inhibition at 1 µM: 91.5%
[6]; Homo sapiens, ALL-1 EXP#1, 3 μM
  inhibition at 3 µM: 90.1%
[6]; Homo sapiens, ALL-1 EXP#1, 10 μM
  inhibition at 10 µM: > 99.7%
[6]; Homo sapiens, ALL-1 EXP#2, 1 μM
  inhibition at 1 µM: 56.1%
[6]; Homo sapiens, ALL-1 EXP#2, 3 μM
  inhibition at 3 µM: 93.6%
[6]; Homo sapiens, ALL-1 EXP#2, 10 μM
  inhibition at 10 µM: > 99.6%
[6]; Homo sapiens, ALL-1, two independent experiments, non-linear regression, read-out: IC50, inhibition of clonogenic growth
  IC50: 290 nM
[7]; PC-3, PC3 cells, 3 μM, read-out: inhibition of clonogenic growth
  inhibition at 3 µM: > 99%
[7]; PC-3, PC3 cells, read-out: estimated IC50, clonogenic growth
  IC50: 129 nM
[7]; PC-3 EXP#1, 1 μM
  inhibition at 1 µM: 91.9%
  Colonies/5 × 10^4 Cells: 15.0 Colonies/5 × 10^4 Cells
[7]; PC-3 EXP#1, 3 μM, read-out: % Inhibition
  inhibition at 3 µM: 99.7%
[7]; PC-3 EXP#1, 10 μM
  inhibition at 10 µM: 99.5%
  Colonies/5 × 10^4 Cells: 1.0 Colonies/5 × 10^4 Cells
[7]; PC-3 EXP#2, 1 μM
  inhibition at 1 µM: 95.6%
  Colonies/5 × 10^4 Cells: 7.0 Colonies/5 × 10^4 Cells
[7]; PC-3 EXP#2, 3 μM, read-out: % Inhibition
  inhibition at 3 µM: 99.4%
[7]; PC-3 EXP#2, 10 μM
  inhibition at 10 µM: 99.4%
  Colonies/5 × 10^4 Cells: 1 Colonies/5 × 10^4 Cells
[7]; PC-3, two independent experiments, non-linear regression, read-out: IC50, inhibition of clonogenic growth
  IC50: 56 nM
[7]; PC-3 EXP#1, 3 μM
  Colonies/5 × 10^4 Cells: 0.5 Colonies/5 × 10^4 Cells
[7]; PC-3 EXP#2, 3 μM
  Colonies/5 × 10^4 Cells: 1 Colonies/5 × 10^4 Cells
[8]; 1 μM, BT-20 and PC-3
  mean number of residual clones forming colonies: 20.9±5.3 /5×10^4 cells
[8]; Homo sapiens, 1 μM, 4 experiments (2 PC-3, 2 BT-20), read-out: inhibition of clonogenic growth (mean±SE)
  inhibition at 1 µM: 82.6 ± 8.1%
[8]; Homo sapiens, 10 μM, BT-20 and PC-3, read-out: inhibition of clonogenic growth (mean±SE)
  inhibition at 10 µM: 99.2 ± 0.2%
[1]; ALL-1, side by side comparison
  IC50: 780 nM
[2]; RAJI, side by side comparison
  IC50: 8900 nM
[3]; LOUCY, side by side comparison
  IC50: 42 nM

## CCC1CN2CCC1CC2C(Oc1nnc(OC(c2ccnc3ccc(OC)cc23)C2CC3CCN2CC3CC)c2ccccc12)c1ccnc2ccc(OC)cc12 (centres unmarked) [Compound C61, 1,4-Bis (9-O dihydroquinidinyl)phthalazine/hydroquinidine 1,4-phathalazinediyl diether, reference compound]
[5]; BT-20 EXP#1, 10 μM
  % Inhibition: 45.9%
  Colonies/5 × 10^4 Cells: 53.0 Colonies/5 × 10^4 Cells
[5]; BT-20 EXP#2, 10 μM
  % Inhibition: 31.6%
  Colonies/5 × 10^4 Cells: 78.0 Colonies/5 × 10^4 Cells
[6]
  in vitro colony formation by ALL-1 cells: abrogated the in vitro colony formation
[6]; ALL-1 EXP#1, 10 μM
  % Inhibition: >99.7%
  Colonies/5 × 10^4 Cells: 0.0 Colonies/5 × 10^4 Cells
[6]; ALL-1 EXP#2, 10 μM
  % Inhibition: >99.6%
  Colonies/5 × 10^4 Cells: 0.0 Colonies/5 × 10^4 Cells
[7]; PC3 cells, 10 μM
  inhibition of clonogenic growth: 67.7%
[7]; PC-3 EXP#1, 10 μM
  % Inhibition: 77.9%
  Colonies/5 × 10^4 Cells: 41.0 Colonies/5 × 10^4 Cells
[7]; PC-3 EXP#2, 10 μM
  % Inhibition: 57.5%
  Colonies/5 × 10^4 Cells: 67.0 Colonies/5 × 10^4 Cells
[8]; 10 μM, BT-20 and PC-3
  inhibition of clonogenic growth (mean±SE): 53.2±11.3%
  mean number of residual clones forming colonies: 59.8±6.3 /5×10^4 cells
